From patent US20180000085A1, “USE OF PICOLINAMIDE COMPOUNDS WITH FUNGICIDAL ACTIVITY” (DOW AGROSCIENCES LLC, priority 2014, published 2018) come the findings set out here.

The test system of one assay is Puccinia triticina. Description: Wheat brown rust (PUCCRT) disease control on wheat seedlings. The format is in vivo. Details: key to PUCCRT 3DC, HV activity at 100 ppm (% control rating) / PUCCRT disease control, 3DC / PUCCRT 1DP disease control rating, HV activity / PUCCRT 3DC disease control rating, HV activity / PUCCRT 3DC, LV activity at 125.1 g/H (% Control rating) / PUCCRT 1DP, LV activity at 125.1 g/H (% Control rating) / PUCCRT 3DC disease control rating, LV activity at 125.1 g/H / PUCCRT 1DP disease control rating, LV activity at 125.1 g/H / PUCCRT 3DC disease control rating, HV activity at 100 ppm / PUCCRT 1DP disease control rating, HV activity at 100 ppm / HV activity at 100 ppm PUCCRT 3DC (disease control rating) / LV activity at 125.1 g/H PUCCRT 1DP (disease control rating) / LV activity at 125.1 g/H PUCCRT 3DC (disease control rating): A: > 80; B: ≤ 80; C: Not Tested; D: No Activity Observed in the Reported Assay. To be noted: for PUCCRT 1DP, LV activity at 125.1 g/H (% Control rating) / PUCCRT 1DP disease control rating, HV activity: 1 Day Protectant; for PUCCRT 3DC, LV activity at 125.1 g/H (% Control rating) / PUCCRT 3DC disease control rating, HV activity: 3 Day Curative; for PUCCRT 1DP disease control rating, HV activity / PUCCRT 3DC disease control rating, HV activity: HV application at 100 ppm, wheat brown rust.

The subject of the next assay is Zymoseptoria tritici. Description: Leaf blotch of wheat (SEPTTR) disease control on wheat seedlings. The format is in vivo. Details: key to SEPTTR 1DP, HV activity at 100 ppm (% control rating) / SEPTTR 3DC, HV activity at 100 ppm (% control rating) / SEPTTR disease control, 1DP / SEPTTR disease control, 3DC / SEPTTR 1DP disease control rating, HV activity / SEPTTR 3DC disease control rating, HV activity / SEPTTR 3DC, LV activity at 125.1 g/H (% Control rating) / SEPTTR 1DP, LV activity at 125.1 g/H (% Control rating) / SEPTTR 1DP disease control rating, LV activity at 125.1 g/H / SEPTTR 3DC disease control rating, LV activity at 125.1 g/H / SEPTTR 3DC disease control rating, HV activity at 100 ppm / SEPTTR 1DP disease control rating, HV activity at 100 ppm / HV activity at 100 ppm SEPTTR 3DC (disease control rating) / HV activity at 100 ppm SEPTTR 1DP (disease control rating) / LV activity at 125.1 g/H SEPTTR 1DP (disease control rating) / LV activity at 125.1 g/H SEPTTR 3DC (disease control rating): A: > 80; B: ≤ 80; C: Not Tested; D: No Activity Observed in the Reported Assay. To be noted: for SEPTTR 1DP, LV activity at 125.1 g/H (% Control rating) / SEPTTR 1DP disease control rating, HV activity: 1 Day Protectant; for SEPTTR 3DC, LV activity at 125.1 g/H (% Control rating) / SEPTTR 3DC disease control rating, HV activity: 3 Day Curative; for SEPTTR 1DP disease control rating, HV activity / SEPTTR 3DC disease control rating, HV activity: HV application at 100 ppm, wheat leaf blotch.

Where [1] appears, read: low volume application, 125.1 g/H.
[2] abbreviates: low volume application, 125.1 g/H, 1 day protectant.
The mark [3] stands for this setting: low volume application, 125.1 g/H, 3 day curative.

As to `CCC(CC)[C@@H](Oc1ccc(C(F)(F)F)cc1)[C@H](C)OC(=O)[C@H](C)NC(=O)c1nccc(OC)c1OCOC(C)=O` [Cmpd 594], in the assay on Puccinia triticina (setting [1]), the “PUCCRT 1DP, LV activity at 125.1 g/H (% Control rating)” value is recorded as “A (> 80)” and the “PUCCRT 3DC, LV activity at 125.1 g/H (% Control rating)” value is given as “A (> 80)”. For the same compound, in the assay on Zymoseptoria tritici (setting [1]), the “SEPTTR 1DP, LV activity at 125.1 g/H (% Control rating)” value is given as “A (> 80)” and the “SEPTTR 3DC, LV activity at 125.1 g/H (% Control rating)” value is given as “B (≤ 80)”.

`COc1ccnc(C(=O)N[C@@H](C)C(=O)O[C@@H](C)COCc2ccccc2)c1O` [Cmpd 331]: in the assay with Puccinia triticina, the “PUCCRT 1DP disease control rating, HV activity” value was “B (≤ 80)” and the “PUCCRT 3DC disease control rating, HV activity” value is listed as “A (> 80)”. For the same compound, in the assay on Zymoseptoria tritici, the “SEPTTR 1DP disease control rating, HV activity” value is “B (≤ 80)” and the “SEPTTR 3DC disease control rating, HV activity” value was “D”.

Consider `C=CCC(Oc1ccccc1)C(C)OC(=O)C(C)NC(=O)c1nccc(OC)c1O` (stereo not shown) [Cmpd 437], for which, in the assay with Puccinia triticina, the “PUCCRT 1DP disease control rating, HV activity” value is recorded as “A (> 80)” and the “PUCCRT 3DC disease control rating, HV activity” value is “A (> 80)”. Moreover, in the assay on Zymoseptoria tritici, the “SEPTTR 1DP disease control rating, HV activity” value is “B (≤ 80)” and the “SEPTTR 3DC disease control rating, HV activity” value was “A (> 80)”.

As for `CCC(CC)[C@@H](Oc1cccc(Cl)c1)[C@H](C)OC(=O)[C@@H](NC(=O)c1nccc(OC)c1O)C(C)C` [Cmpd 406], in the assay with Puccinia triticina, the “PUCCRT 1DP disease control rating, HV activity” value is given as “B (≤ 80)” and the “PUCCRT 3DC disease control rating, HV activity” value is “B (≤ 80)”. Moreover, in the assay on Zymoseptoria tritici, the “SEPTTR 1DP disease control rating, HV activity” value is “B (≤ 80)” and the “SEPTTR 3DC disease control rating, HV activity” value was “B (≤ 80)”.

Regarding `C=CC[C@@H](OCc1ccccc1)[C@H](C)OC(=O)[C@H](C)NC(=O)c1nccc(OC)c1O` [Cmpd 333, (S)-(2S,3R)-3-(benzyloxy)hex-5-en-2-yl-2-(3-hydroxy-4-methoxypicolinamido)propanoate], in the assay on Puccinia triticina, the “PUCCRT 1DP disease control rating, HV activity” value is reported as “A (> 80)” and the “PUCCRT 3DC disease control rating, HV activity” value was “A (> 80)”. Also, in the assay with Zymoseptoria tritici, the “SEPTTR 1DP disease control rating, HV activity” value is recorded as “B (≤ 80)” and the “SEPTTR 3DC disease control rating, HV activity” value was “B (≤ 80)”.

As for `CCCOC[C@@H](Oc1ccccc1)[C@H](C)OC(=O)[C@H](CC)NC(=O)c1nccc(OC)c1O` [Cmpd 314], in the assay with Puccinia triticina, the “PUCCRT 1DP disease control rating, HV activity” value is recorded as “A (> 80)” and the “PUCCRT 3DC disease control rating, HV activity” value is “B (≤ 80)”. Moreover, in the assay on Zymoseptoria tritici, the “SEPTTR 1DP disease control rating, HV activity” value was “B (≤ 80)” and the “SEPTTR 3DC disease control rating, HV activity” value was “D”.

In the case of `CCCO[C@@H](c1ccccc1)[C@H](C)OC(=O)[C@H](C)NC(=O)c1nccc(OC)c1OC(C)=O` [Cmpd 883], the “PUCCRT 1DP disease control rating, LV activity at 125.1 g/H” value with Puccinia triticina (setting [2]) is “A (> 80)”. The “PUCCRT 3DC disease control rating, LV activity at 125.1 g/H” value in the assay on Puccinia triticina (setting [3]) is recorded as “A (> 80)”. In addition, the “SEPTTR 1DP disease control rating, LV activity at 125.1 g/H” value in the assay on Zymoseptoria tritici (setting [2]) was “B (≤ 80)”. The “SEPTTR 3DC disease control rating, LV activity at 125.1 g/H” value in the assay on Zymoseptoria tritici (setting [3]) is on record as “A (> 80)”.

On to `COc1ccnc(C(=O)N[C@@H](C)C(=O)O[C@@H](C)[C@H](Oc2ccc(Cl)cc2Cl)C(C)C)c1OC(C)=O` [Cmpd 567], for which, in the assay on Puccinia triticina (setting [1]), the “PUCCRT 1DP, LV activity at 125.1 g/H (% Control rating)” value is on record as “A (> 80)” and the “PUCCRT 3DC, LV activity at 125.1 g/H (% Control rating)” value is “A (> 80)”. In addition, in the assay on Zymoseptoria tritici (setting [1]), the “SEPTTR 1DP, LV activity at 125.1 g/H (% Control rating)” value is “D” and the “SEPTTR 3DC, LV activity at 125.1 g/H (% Control rating)” value is reported as “A (> 80)”.

With `CCCOC(CC)C(Oc1ccccc1)C(C)OC(=O)C(CC(C)C)NC(=O)c1nccc(OC)c1OCOC(C)=O` (stereo not shown) [Cmpd 448], in the assay on Puccinia triticina, the “PUCCRT 1DP disease control rating, HV activity” value is on record as “A (> 80)” and the “PUCCRT 3DC disease control rating, HV activity” value is listed as “B (≤ 80)”. In the assay with Zymoseptoria tritici, the “SEPTTR 1DP disease control rating, HV activity” value is reported as “B (≤ 80)” and the “SEPTTR 3DC disease control rating, HV activity” value is on record as “B (≤ 80)”.

Take `COc1ccnc(C(=O)N[C@@H](C)C(=O)O[C@@H](C)COC(=O)C(C)C)c1O` [Cmpd 336]: in the assay on Puccinia triticina, the “PUCCRT 1DP disease control rating, HV activity” value is reported as “D” and the “PUCCRT 3DC disease control rating, HV activity” value is listed as “D”. For the same compound, in the assay with Zymoseptoria tritici, the “SEPTTR 1DP disease control rating, HV activity” value was “B (≤ 80)” and the “SEPTTR 3DC disease control rating, HV activity” value is recorded as “B (≤ 80)”.
